US6461619B1 (Somerset Pharmaceuticals, Inc., priority 1998, dated 2002)
Where a name gives a salt, the structure may show the parent alone.

Columns and labels:
[1] = tested on: second-degree burn wounds; test: second-degree burn wound model, epidermal migration (epithelization) assessment; assay type: in vivo, Swine; settings: for Percent of wounds completely epithelized / number of wounds healed (completely epithelized) over the number of wounds assessed: pig
Protocol: The ability of selegiline and desmethylselegiline to assist in the healing of burns was tested using a second-degree burn wound model. In second-degree burns, the entire surface of the epidermis is destroyed. An epidermal covering is regenerated from the remaining epithelial and epidermal cells adjacent to the burns. This phase of the healing process is called epithelization.
Swine were used for the experimental research animal because their skin has many morphological similarities to human skin. Seven young female specific pathogen free (SPF:Ken-O-Kaw Farms, Windsor, Ill.) pigs weighing 25-30 kg were kept in house for two weeks prior to initiating the experiment. These animals were fed a basal diet ad libitum and housed individually in facilities with controlled temperature (19-21° C.) and lights (12 h/12 h LD).
Experimental animals were clipped with standard animal clippers on the day of the experiment. The skin on the back and both sides of the animal was prepared for wounding by washing with a non-antibiotic soap and sterile water. Each animal was anesthetized i.m. with ketamine-HCl (20 mg/kg), xylazine (2 mg/kg) and atropine (0.05 mg/kg), followed by mask inhalation of an isoflurane and oxygen combination. Five specifically designed cylindrical brass rods weighing 358 g each were heated in a boiling water bath to 100° C. A rod was removed from the water bath and wiped dry before being applied to the skin surface to prevent water droplets from creating a steam burn on the skin. The brass rod was held at a vertical position on the skin for six seconds with all pressure being supplied by gravity in order to make a burn 8.5 mm diameter×0.8 mm deep. Immediately after burning, the roof of the burn blister was removed with a sterile spatula. The burn wounds were made approximately 2 cm from each other.
Approximately 90 burn wounds were made on the anterior two-thirds of the animal. The posterior third of the animal cannot be used because of anatomical differences in burn wound healing (a more rapid healing of burns has been observed at that position).
A total of seven animals were used and a total of fifteen wounds per treatment group were analyzed on each of days 7-12 after wounding. Treatments were coded to maintain blind study compliance. The burn wounds were treated with 25 ug of test article (enough to cover each wound). Treatments were allowed to penetrate into the sites for at least a 20 minute time period. Each treatment was applied within 20 minutes of blister removal and treatment occurred once a day for the first five days.
Beginning on day seven after wounding (day 0) and each day thereafter for four to six days, five burn wounds and the surrounding normal skin from each treatment area were excised using an electrokeratome. Any specimens that were not excised intact were discarded. The excised wounds and the surrounding normal skin were incubated in 0.5 M NaBr for 24 hours at 37° C. After incubation, the specimens were separated into epidermal and dermal sheets. The epidermis was examined macroscopically for defects in the area of the burn wounds. Epithelization was considered complete if no defect was present (healed). […] The epidermal sheet was placed on cardboard for a permanent record.
The number of wounds healed (completely epithelized) were divided by the total number of wounds sampled per day and multiplied by 100.

MAO-A = target: T1, MAO-A (Homo sapiens, UniProt P21397); settings: in comparison to selegiline, background statement; cited from earlier work
T1 sequence (P21397 1-527): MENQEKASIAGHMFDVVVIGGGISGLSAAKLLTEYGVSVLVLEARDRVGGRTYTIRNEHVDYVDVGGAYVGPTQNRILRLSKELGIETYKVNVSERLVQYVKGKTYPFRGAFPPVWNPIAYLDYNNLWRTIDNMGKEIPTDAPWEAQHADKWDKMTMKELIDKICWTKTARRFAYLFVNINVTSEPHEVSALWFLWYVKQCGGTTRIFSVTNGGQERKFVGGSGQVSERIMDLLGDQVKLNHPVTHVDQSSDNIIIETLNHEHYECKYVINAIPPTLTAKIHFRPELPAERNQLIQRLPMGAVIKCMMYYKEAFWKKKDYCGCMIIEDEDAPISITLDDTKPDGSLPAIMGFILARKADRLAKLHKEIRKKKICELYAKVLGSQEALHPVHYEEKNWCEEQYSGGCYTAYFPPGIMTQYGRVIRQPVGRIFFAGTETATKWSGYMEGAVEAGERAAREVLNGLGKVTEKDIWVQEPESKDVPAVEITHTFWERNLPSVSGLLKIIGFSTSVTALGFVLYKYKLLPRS

monoamine oxidase B = target: T2, monoamine oxidase B (Homo sapiens, UniProt P27338); settings: background statement; cited from earlier work
T2 sequence (P27338 1-520): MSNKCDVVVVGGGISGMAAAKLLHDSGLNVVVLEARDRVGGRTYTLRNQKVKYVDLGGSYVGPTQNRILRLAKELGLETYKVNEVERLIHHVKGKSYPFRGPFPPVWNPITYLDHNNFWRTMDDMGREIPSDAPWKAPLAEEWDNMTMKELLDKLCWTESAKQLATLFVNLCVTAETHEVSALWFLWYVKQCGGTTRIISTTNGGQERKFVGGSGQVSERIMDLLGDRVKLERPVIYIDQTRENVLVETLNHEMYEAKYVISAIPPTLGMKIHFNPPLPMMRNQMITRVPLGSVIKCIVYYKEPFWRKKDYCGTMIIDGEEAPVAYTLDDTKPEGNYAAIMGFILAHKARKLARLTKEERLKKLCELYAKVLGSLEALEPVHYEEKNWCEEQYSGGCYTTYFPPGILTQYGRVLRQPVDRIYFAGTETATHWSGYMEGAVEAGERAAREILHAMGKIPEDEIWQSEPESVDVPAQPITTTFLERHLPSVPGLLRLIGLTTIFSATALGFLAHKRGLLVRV

[2] = 10^-4M topical, day 7 after burning
[3] = 10^-4M topical, day 8 after burning
[4] = 10^-4M topical, day 9 after burning
[5] = 10^-4M topical, day 10 after burning
[6] = 10^-4M topical, day 11 after burning
[7] = 10^-4M topical, day 12 after burning
[8] = 10^-4M topical, day 13 after burning
[9] = 10^-6M topical, day 7 after burning
[10] = 10^-6M topical, day 8 after burning
[11] = 10^-6M topical, day 9 after burning
[12] = 10^-6M topical, day 10 after burning
[13] = 10^-8M topical, day 7 after burning
[14] = 10^-8M topical, day 8 after burning
[15] = 10^-8M topical, day 9 after burning
[16] = 10^-8M topical, day 10 after burning
[17] = 10^-8M topical, day 11 after burning
[18] = 10^-8M topical, day 12 after burning
[19] = 10^-8M topical, day 13 after burning

SMILES: C#CCNC(C)Cc1ccccc1 (centres unmarked) [desmethylselegiline HCl, desmethylselegiline]
- Percent of wounds completely epithelized [1, 2]: (0%)
- number of wounds healed (completely epithelized) over the number of wounds assessed [1, 2]:  0/15
- Percent of wounds completely epithelized [1, 3]: (0%)
- number of wounds healed (completely epithelized) over the number of wounds assessed [1, 3]:  0/15
- Percent of wounds completely epithelized [1, 4]: (0%)
- number of wounds healed (completely epithelized) over the number of wounds assessed [1, 4]:  0/15
- Percent of wounds completely epithelized [1, 5]: (0%)
- number of wounds healed (completely epithelized) over the number of wounds assessed [1, 5]:  0/15
- Percent of wounds completely epithelized [1, 6]: 7%
- number of wounds healed (completely epithelized) over the number of wounds assessed [1, 6]:  1/15
- Percent of wounds completely epithelized ([1]; 10^-4M topical, day 11 after burning, listed as B-1): (7%)
- Percent of wounds completely epithelized [1, 7]: 33%
- number of wounds healed (completely epithelized) over the number of wounds assessed [1, 7]:  5/15
- Percent of wounds completely epithelized ([1]; 10^-4M topical, day 12 after burning, listed as B-1): (33%)
- Percent of wounds completely epithelized [1, 8]: 69%
- number of wounds healed (completely epithelized) over the number of wounds assessed [1, 8]: {fraction (11/16 )}
- Percent of wounds completely epithelized ([1]; 10^-4M topical, day 13 after burning, listed as B-1): (69%)
- time to complete epithelization compared with other treatment groups ([1]; 10^-6 M): completely epithelized sooner than all other treatment groups
- Percent of wounds completely epithelized [1, 9]: (0%)
- number of wounds healed (completely epithelized) over the number of wounds assessed [1, 9]:  0/15
- Percent of wounds completely epithelized [1, 10]: (0%)
- number of wounds healed (completely epithelized) over the number of wounds assessed [1, 10]:  0/15
- Percent of wounds completely epithelized [1, 11]: (0%)
- number of wounds healed (completely epithelized) over the number of wounds assessed [1, 11]:  0/15
- Percent of wounds completely epithelized [1, 12]: (0%)
- number of wounds healed (completely epithelized) over the number of wounds assessed [1, 12]:  0/15
- number of wounds healed (completely epithelized) over the number of wounds assessed ([1]; 10^-6M topical, day 11 after burning):  5/15
- number of wounds healed (completely epithelized) over the number of wounds assessed ([1]; 10^-6M topical, day 12 after burning):  7/15
- number of wounds healed (completely epithelized) over the number of wounds assessed ([1]; 10^-6M topical, day 13 after burning):  6/16
- Percent of wounds completely epithelized [1, 13]: (0%)
- number of wounds healed (completely epithelized) over the number of wounds assessed [1, 13]:  0/15
- Percent of wounds completely epithelized [1, 14]: (0%)
- number of wounds healed (completely epithelized) over the number of wounds assessed [1, 14]:  0/15
- Percent of wounds completely epithelized [1, 15]: (0%)
- number of wounds healed (completely epithelized) over the number of wounds assessed [1, 15]:  0/15
- Percent of wounds completely epithelized [1, 16]: (0%)
- number of wounds healed (completely epithelized) over the number of wounds assessed [1, 16]:  0/15
- Percent of wounds completely epithelized [1, 17]: 33%
- number of wounds healed (completely epithelized) over the number of wounds assessed [1, 17]:  5/15
- Percent of wounds completely epithelized ([1]; 10^-8M topical, day 11 after burning, listed as B-3): (33%)
- Percent of wounds completely epithelized [1, 18]: 67%
- number of wounds healed (completely epithelized) over the number of wounds assessed [1, 18]: {fraction (10/15 )}
- Percent of wounds completely epithelized ([1]; 10^-8M topical, day 12 after burning, listed as B-3): (67%)
- Percent of wounds completely epithelized [1, 19]: 67%
- number of wounds healed (completely epithelized) over the number of wounds assessed [1, 19]: {fraction (40/15 )}
- Percent of wounds completely epithelized ([1]; 10^-8M topical, day 13 after burning, listed as B-3): (67%)
- percentage of wounds completely epithelized compared with other groups ([1]; day thirteen, all concentrations): higher percentage of wounds completely epithelized on day thirteen
- wound crust colour during absorption of applied agent ([1]; first three days of treatment, normal again after 15 minutes): more pronounced
- inhibition of MAO-A (MAO-A): decreased to an even greater extent
- MAO-B inhibitory activity (monoamine oxidase B): reduced MAO-B inhibitory activity in comparison to selegiline
